Test results taken from patent US20190269705A1, “METHODS AND MATERIALS FOR TREATING GRAFT VERSUS HOST DISEASE” (Regents of the University of Minnesota, priority 2017, published 2019).

Assays:
Th1 cells [1] = assay: Intracellular metabolites by mass spectrometry and pathway analysis, Th1; format: cell-based, mouse; details: for Hits: Th1 Pathway
Method: Differentiation: CD4 cells were isolated as previously described and differentiated in subset-specific medium (in triplicate) for 3 days, split at day 3 with new media and IL-2, then allowed to incubate a further 2 days. At day 5, wells were combined, cells washed lx in MACS buffer, re-isolated for CD4 via AutoMACS Pro automated magnetic separator (Miltenyi, Cat #: 130-092-545). Metabolites from Th1 and Th17 cells were extracted as described above.
Differentiation. CD4 cells were isolated as previously described and differentiated in subset-specific medium in the presence of vehicle or CB839 (in triplicate) for 3 days, split at day 3 with new media and IL-2, then allowed to incubate a further 2 days. At day 5, wells were combined, cells washed 1× in MACS buffer and re-isolated for CD4 via AutoMACS Pro automated magnetic separator (Miltenyi, Cat #: 130-092-545). Metabolites from Th1 and Th17 cells were extracted and analyzed by LC-HRMS using a Q-Exactive as described previously (Gerriets et al., 2015). Data were range scaled and analyzed using Metaboanalyst 3.5 (Xia and Wishart, 2002) to generate heat maps and for principle component analyses.

Th1 cells [2] = assay: 3H-2-deoxyglucose uptake and ECAR, Th1; format: cell-based, mouse
Method: Glucose uptake assays were performed as described elsewhere (see, e.g., Macintyre et al., 2014 Cell Metab. 20(1):61-72). Naïve CD4+ T cells were differentiated into Th1 and Th17 cells, in triplicate, in the presence or absence of CB839 over 5 days and spun down after reisolation using CD4 kit as previously described. Cells were washed 2× in PBS, counted, then rested in 1 mL Kreb's Ringers HEPES (KRH) for 10 minutes. Cells were spun and resuspended to 5×10^5 cells/50 uL KRH for glucose uptake assay. Briefly, cells were […]. Cells incubated for 10 minutes at 37° C. Immediately after incubation, reaction was quenched with 200 μM phloretin (Calbiochem, Cat #: 524488). Cells were spun, washed, and then resuspended in scint fluid for counting on Beckman-Coulter scintillation counter. Pathway analysis of altered metabolites was performed using Metaboanalyst 3.0 (metaboanalyst. ca/faces/home.xhtml).
Experiments were carried out on Agilent Seahorse XF96 bioanalyzer (Agilent). Briefly, wild type CD4+ cells were isolated as previous and activated for 3 days on CD3/CD28 as previously described, or skewed to Th1 and Th17 subsets as described above. T cells were spun onto XF96 Cell-Tak (BD Bioscience, Cat #: 354240) coated plates and rested in Seahorse XF RPMI 1640 media supplemented with glutamine, sodium pyruvate, and glucose. For immediate metabolic response, CB839 and UK5099 were injected separately or in combination, and OCR and ECAR measured.
Glucose uptake assays were performed as previously described (Macintyre et al.,2014). Naïve CD4+ T cells were differentiated into Th1 and Th17 cells, in triplicate, in the presence or absence of CB839 over five days and spun down after reisolation using CD4 kit as previously described. At day 3 and 5, cells were removed, washed twice in PBS, counted, then rested in 1 mL Kreb's Ringers HEPES (KRH) for at least 10 minutes. Cells were spun and resuspended to 5×10^5 cells/50 μL KRH for glucose uptake assay. Briefly, 3H-2-deoxyglucose was suspended in KRH bubble layered in oil, and cells were added to this bubble. Cells were incubated for 10 minutes at 37° C. Immediately after incubation, reaction was quenched with 200 μM phloretin (Calbiochem, Cat #: 524488). Cells were spun, washed, and then resuspended in scintilation fluid for counting on Beckman-Coulter scintillation counter (3H, 1 min/sample read).
Experiments were carried out on Agilent Seahorse XF96 bioanalyzer (Agilent). Briefly, wild type CD4+ cells were isolated as previous and activated for 3 days on αCD3/CD28 coated plates as previously described, or skewed to Th1 and Th17 subsets as described above. T cells were isolated and spun onto XF96 Cell-Tak (BD Bioscience, Cat #: 354240) coated plates and rested in Seahorse XF RPMI 1640 media supplemented with glutamine, sodium pyruvate, and glucose. For immediate metabolic response, 1 μM CB839 and 5 μM UK5099 (Cat #: PZ0160-5MG) were injected separately or in combination, and OCR and ECAR measured. For activation response, 1 uM CB839 was injected into IL-7 maintained naïve CD4+ T cells in seahorse medium and allowed to incubate for 20 minutes, followed by soluble αCD3/CD28 injection.

[3] = Th1, day 5, listed as GLS inhibitor

For `O=C(Cc1cccc(OC(F)(F)F)c1)Nc1ccc(CCCCc2nnc(NC(=O)Cc3ccccn3)s2)nn1` [CB839], the “2-hydroxyglutarate (2-HG)” value (Th1 cells [1]; Th1, CB839-treated vs vehicle) was “increased in both Th1 and Th17”, the “intracellular α-KG” value (Th1 cells [1]; Th1, CB839-treated vs vehicle) was “reduced” and the “programs of intracellular metabolites” value (Th1 cells [1]; Th1, differentiated with CB839, 5 days) was “shifted”. The “glutamate and aspartate levels” value (Th1 cells [1]; Th1, over five days) was “rapidly decreased”, the “steady state levels of glutamine” value (Th1 cells [1]; Th1, over five days) was “rapidly increased” and the Hits (Th1 cells [1]; Alanine, aspartate and glutamate metabolism) was 8. The Hits (Th1 cells [1]; Arginine and proline metabolism) was 6, the Hits (Th1 cells [1]; Butanoate metabolism) was 3 and the Hits (Th1 cells [1]; Citrate cycle (TCA cycle)) was 5. It also gave a Hits (Th1 cells [1]; Cysteine and methionine metabolism) of 3, a Hits (Th1 cells [1]; D-Glutamine and Dglutamate metabolism) of 3 and a Hits (Th1 cells [1]; Histidine metabolism) of 3. It also gave a Hits (Th1 cells [1]; Nitrogen metabolism) of 2, a Hits (Th1 cells [1]; Pyrimidine metabolism) of 6 and a Hits (Th1 cells [1]; Pyruvate metabolism) of 3. The glucose uptake (Th1 cells [2]; Th1, day 5) was “increased”, the “media acidification (ECAR, glycolytic flux)” value (Th1 cells [2]; Th1, day 5) was “increased” and the glucose uptake (Th1 cells [2]; [3]) was “increased levels of glucose uptake and glycolytic flux”. The “media acidification (ECAR, glycolytic flux)” value (Th1 cells [2]; [3]) was “increased levels of glucose uptake and glycolytic flux” and the glucose uptake (Th1 cells [2]; Th1, day three) was “reduced”.
